# Measured values taken from ChEMBL document CHEMBL1201862, “PubChem BioAssay data set” (2004).
# Active and inactive are the calls of the source.
# Tests used:
# [1] = target: Cytochrome P450 2D6 (Homo sapiens, UniProt P10635); assay: qHTS Assay for Inhibitors and Substrates of Cytochrome P450 2D6. [Related pubchem assays: 410 ]; type: ADME; details: read-out: Potency
# [2] = target: Cytochrome P450 2C19 (Homo sapiens, UniProt P33261); assay: qHTS Assay for Inhibitors and Substrates of Cytochrome P450 2C19. [Related pubchem assays: 410 ]; type: ADME; details: read-out: Potency
# [3] = target: NADPH oxidase 1 (Homo sapiens, UniProt Q9Y5S8); assay: Late-stage luminescence-based cell-based dose response assay to identify inhibitors of NADPH oxidase 1 (NOX1): Synthesized analogs.; type: functional
# [4] = target: T1, Sphingosine 1-phosphate receptor 4 (Homo sapiens, UniProt O95977); assay: Fluorescence dose response cell-based high throughput screening assay for antagonists of the Sphingosine 1-Phosphate Receptor 4 (S1P4). [Related pubchem assays: 1524 (Confirmation in triplicates.), 1510 (Primary screen.)]; type: functional
# T1 sequence (O95977 whole entry): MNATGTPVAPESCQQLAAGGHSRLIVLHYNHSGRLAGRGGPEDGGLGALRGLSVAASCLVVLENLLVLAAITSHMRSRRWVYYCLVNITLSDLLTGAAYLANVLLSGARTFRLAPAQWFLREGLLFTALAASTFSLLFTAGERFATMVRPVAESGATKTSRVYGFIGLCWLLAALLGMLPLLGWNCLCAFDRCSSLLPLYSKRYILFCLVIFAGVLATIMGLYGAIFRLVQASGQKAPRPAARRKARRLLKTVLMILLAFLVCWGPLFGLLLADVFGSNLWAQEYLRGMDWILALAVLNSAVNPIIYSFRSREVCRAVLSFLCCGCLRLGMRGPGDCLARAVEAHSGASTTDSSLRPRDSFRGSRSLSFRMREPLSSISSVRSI
# [5] = target: T2, Heat shock factor protein 1 (Mus musculus, UniProt P38532); assay: HSF1 potentiators in luciferase reporter cells, confirmation, cell-based, NIH3T3, luminescence, dose retest (AID 435004); type: functional;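 also: stress induced by proteasome inhibitor MG132 added 30 min after compound; luciferase reporter driven by HSF1 response element in NIH3T3 cells; actives raise luminescence as potentiators of the MG132 stress response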
# T2 sequence (P38532 whole entry): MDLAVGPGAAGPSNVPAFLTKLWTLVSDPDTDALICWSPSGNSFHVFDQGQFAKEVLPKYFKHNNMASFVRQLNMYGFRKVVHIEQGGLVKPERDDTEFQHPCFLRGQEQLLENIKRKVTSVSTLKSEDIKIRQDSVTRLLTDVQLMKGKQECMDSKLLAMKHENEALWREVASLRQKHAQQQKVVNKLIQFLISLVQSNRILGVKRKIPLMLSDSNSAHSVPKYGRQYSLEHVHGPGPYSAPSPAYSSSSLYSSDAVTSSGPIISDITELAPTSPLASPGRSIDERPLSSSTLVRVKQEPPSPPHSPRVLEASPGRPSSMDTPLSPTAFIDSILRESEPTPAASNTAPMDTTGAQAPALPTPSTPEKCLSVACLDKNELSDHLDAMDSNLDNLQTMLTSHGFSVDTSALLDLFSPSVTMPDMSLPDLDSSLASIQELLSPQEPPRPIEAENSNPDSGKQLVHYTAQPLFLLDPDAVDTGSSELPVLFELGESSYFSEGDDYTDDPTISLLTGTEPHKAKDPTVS
# [6] = NIH-3T3 fibroblast cytotoxicity, dose response, cytotoxicity control, cell-based, fluorescence, Alamar Blue, secondary assay (AID 2327); type: functional;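 also: NIH-3T3 mouse fibroblasts cultured with fluconazole at 8 µg/mL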
# [7] = target: T3, Protein RecA (Mycobacterium tuberculosis, UniProt P9WHJ3); assay: Fluorescence Cell-Free Homogeneous Dose Retest to Identify Inhibitors of RecA-Intein Splicing Activity. [Related pubchem assays (depositor defined):AID2097, AID2223, AID489010, AID492950]; type: functional
# T3 sequence (P9WHJ3 whole entry): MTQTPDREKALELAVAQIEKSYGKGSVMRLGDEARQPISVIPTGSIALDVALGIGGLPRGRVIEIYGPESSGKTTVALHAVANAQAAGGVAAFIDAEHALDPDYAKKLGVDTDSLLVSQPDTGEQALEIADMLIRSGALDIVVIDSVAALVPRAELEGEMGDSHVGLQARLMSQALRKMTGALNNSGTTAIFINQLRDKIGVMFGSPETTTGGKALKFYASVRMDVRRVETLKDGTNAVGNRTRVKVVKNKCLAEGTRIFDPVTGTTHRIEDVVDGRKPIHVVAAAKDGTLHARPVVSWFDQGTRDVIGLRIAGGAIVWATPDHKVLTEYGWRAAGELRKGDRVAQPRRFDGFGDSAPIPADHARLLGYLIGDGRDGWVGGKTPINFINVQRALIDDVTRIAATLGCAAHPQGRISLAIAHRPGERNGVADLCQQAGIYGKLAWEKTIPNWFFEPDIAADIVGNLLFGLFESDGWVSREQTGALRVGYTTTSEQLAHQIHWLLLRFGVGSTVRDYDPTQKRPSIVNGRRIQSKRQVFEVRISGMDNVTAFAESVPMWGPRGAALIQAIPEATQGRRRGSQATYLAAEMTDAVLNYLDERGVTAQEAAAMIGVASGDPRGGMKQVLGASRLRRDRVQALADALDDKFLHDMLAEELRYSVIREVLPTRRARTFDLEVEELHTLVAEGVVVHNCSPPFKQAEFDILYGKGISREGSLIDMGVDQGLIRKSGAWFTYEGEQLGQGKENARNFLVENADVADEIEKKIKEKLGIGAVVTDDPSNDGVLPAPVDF
# [8] = C. albicans growth with fluconazole, confirmation, fluorescence, retest (AID 2467); type: functional, cell-based
# [9] = target: Sphingosine 1-phosphate receptor 1 (Homo sapiens, UniProt P21453); type: functional;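 also: Tango beta-arrestin reporter U2OS cells stimulated with S1P near its EC80; inhibitor potency meaning antagonism of receptor activation by the natural agonist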
# [10] = target: T1, Sphingosine 1-phosphate receptor 4; assay: Late stage fluorescence dose response cell-based screening assay for antagonists of the Sphingosine 1-Phosphate Receptor 4 (S1P4). [Related pubchem assays: 1524 (Confirmation screen (S1P4 antagonists).), 1510 (Primary screen (S1P4 antagonists).), 1853 (Summary AID (S1P4 antagonists).), 1692 (Dose response screen (S1P4 antagonists).)]; type: functional
# [11] = growth suppression of beta-catenin-knockout colon cells, dose response, cell-based, HCT116, human colon tumor (AID 1045); type: functional;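 also: HCT116 colon tumor cells with beta catenin knocked out; cells exposed to compound for 60 hours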
# [12] = growth suppression of PTEN-null colon cells, dose response, cell-based, HCT116 PTEN knockout (AID 1047); type: functional;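 also: HCT116 colon tumor cells with PTEN knocked out; cells exposed to compound for 60 hours before readout; potency for loss of cell viability measured by luminescence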
# [13] = target: T4, Replicative DNA helicase DnaB (Mycobacterium tuberculosis, UniProt P9WMR3); assay: DnaB intein splicing inhibitors, dose response, biochemical, cell-free fluorescence (AID 449749); type: functional
# T4 sequence (P9WMR3 whole entry): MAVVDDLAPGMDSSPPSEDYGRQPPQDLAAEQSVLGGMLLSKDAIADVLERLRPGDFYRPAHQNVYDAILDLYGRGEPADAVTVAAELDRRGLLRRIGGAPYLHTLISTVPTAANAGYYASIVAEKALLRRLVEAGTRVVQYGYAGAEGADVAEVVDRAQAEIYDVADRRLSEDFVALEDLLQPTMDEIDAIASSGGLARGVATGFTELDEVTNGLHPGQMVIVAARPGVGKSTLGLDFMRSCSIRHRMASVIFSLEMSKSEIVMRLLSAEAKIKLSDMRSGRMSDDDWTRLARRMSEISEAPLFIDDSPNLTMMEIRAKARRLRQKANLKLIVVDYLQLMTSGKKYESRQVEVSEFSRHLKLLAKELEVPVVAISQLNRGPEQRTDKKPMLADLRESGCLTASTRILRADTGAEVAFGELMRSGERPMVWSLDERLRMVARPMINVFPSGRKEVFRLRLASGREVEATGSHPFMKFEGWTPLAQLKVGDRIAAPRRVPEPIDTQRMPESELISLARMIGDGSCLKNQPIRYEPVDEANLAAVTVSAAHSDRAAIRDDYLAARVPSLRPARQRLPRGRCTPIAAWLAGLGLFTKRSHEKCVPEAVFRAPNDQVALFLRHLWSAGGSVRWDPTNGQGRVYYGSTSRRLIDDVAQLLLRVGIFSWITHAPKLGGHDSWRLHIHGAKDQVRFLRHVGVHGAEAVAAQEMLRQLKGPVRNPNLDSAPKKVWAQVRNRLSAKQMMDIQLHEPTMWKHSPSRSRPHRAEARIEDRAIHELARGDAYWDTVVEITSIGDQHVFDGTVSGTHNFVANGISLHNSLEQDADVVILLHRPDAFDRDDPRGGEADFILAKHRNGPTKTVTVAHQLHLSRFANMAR
# NADPH oxidase 1, sequence (Q9Y5S8 whole entry): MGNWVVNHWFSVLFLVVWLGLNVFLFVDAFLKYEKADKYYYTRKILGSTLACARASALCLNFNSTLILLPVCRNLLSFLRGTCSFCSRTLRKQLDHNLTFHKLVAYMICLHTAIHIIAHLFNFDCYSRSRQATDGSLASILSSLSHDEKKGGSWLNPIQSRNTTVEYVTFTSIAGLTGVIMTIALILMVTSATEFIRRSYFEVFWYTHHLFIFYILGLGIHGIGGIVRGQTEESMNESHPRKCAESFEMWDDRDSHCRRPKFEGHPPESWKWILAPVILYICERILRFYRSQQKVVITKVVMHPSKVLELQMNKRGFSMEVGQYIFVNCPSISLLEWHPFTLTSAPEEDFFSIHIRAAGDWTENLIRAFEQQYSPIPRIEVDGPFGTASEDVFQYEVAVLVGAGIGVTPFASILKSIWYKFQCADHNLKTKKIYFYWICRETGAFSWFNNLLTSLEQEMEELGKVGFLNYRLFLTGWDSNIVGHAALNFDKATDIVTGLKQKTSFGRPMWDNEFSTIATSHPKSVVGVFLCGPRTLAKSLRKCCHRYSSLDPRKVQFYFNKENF
# Cytochrome P450 2D6, sequence (P10635 whole entry): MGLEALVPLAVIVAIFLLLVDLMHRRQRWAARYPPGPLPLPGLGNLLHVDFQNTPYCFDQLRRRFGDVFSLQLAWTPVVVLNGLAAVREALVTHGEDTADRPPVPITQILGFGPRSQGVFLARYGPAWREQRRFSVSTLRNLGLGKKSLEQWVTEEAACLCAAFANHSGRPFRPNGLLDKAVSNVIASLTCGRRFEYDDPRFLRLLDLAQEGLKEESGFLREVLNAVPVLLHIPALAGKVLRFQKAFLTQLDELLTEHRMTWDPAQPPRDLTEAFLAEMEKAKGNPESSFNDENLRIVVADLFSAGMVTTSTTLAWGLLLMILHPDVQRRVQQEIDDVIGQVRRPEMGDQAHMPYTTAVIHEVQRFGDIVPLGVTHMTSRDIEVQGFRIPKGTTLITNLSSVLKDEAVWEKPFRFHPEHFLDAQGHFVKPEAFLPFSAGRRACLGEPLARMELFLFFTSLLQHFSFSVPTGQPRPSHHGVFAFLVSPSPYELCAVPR
# Sphingosine 1-phosphate receptor 1, sequence (P21453 whole entry): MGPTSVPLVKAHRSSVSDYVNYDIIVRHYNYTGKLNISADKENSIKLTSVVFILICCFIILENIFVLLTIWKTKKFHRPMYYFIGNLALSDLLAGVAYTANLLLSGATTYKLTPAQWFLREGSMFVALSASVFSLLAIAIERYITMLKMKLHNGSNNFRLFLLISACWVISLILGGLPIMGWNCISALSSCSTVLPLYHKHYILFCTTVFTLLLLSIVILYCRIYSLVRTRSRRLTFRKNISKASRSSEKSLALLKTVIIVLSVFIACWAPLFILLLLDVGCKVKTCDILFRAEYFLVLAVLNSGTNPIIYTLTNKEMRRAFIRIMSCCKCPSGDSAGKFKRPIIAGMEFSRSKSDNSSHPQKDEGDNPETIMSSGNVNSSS
# Cytochrome P450 2C19, sequence (P33261 whole entry): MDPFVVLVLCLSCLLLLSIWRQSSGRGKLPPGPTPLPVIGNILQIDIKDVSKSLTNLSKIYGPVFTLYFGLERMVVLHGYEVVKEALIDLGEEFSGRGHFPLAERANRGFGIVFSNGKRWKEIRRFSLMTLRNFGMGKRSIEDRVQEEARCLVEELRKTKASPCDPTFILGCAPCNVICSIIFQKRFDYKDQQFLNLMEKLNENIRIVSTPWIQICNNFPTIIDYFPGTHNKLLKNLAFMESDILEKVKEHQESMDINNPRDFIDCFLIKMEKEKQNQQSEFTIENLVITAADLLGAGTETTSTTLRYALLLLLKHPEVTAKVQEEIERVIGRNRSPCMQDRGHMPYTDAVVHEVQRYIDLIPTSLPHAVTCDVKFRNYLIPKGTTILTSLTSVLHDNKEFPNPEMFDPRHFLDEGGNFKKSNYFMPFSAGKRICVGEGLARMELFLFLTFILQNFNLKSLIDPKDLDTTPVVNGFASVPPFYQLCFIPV
compound,measurement,setting,value
COC(=O)NC(/C(C(=O)OC)=C(\C)NCc1ccccc1)c1cccc(C)c1 (stereo not drawn),AC50,[1],7.94 µM (inconclusive)
same,AC50,[2],6.31 µM (inconclusive)
CCN1c2ccccc2S(=O)(=O)c2ccccc21,IC50,[3],> 50 µM (not active)
O=S(=O)(c1ccc(Cl)c(Cl)c1)c1snnc1-c1ccccc1,IC50,[4],0.524 µM (active)
same,EC50,[5],9.7 µM (active)
same,EC50,[6],18.3 µM (active)
same,EC50,[7],0.504 µM (active)
same,EC50,[8],> 38 µM (not active)
same,IC50,[9],4.29 µM (active)
same,IC50,[10],10.8 µM (not active)
same,EC50,[11],0.083 µM (active)
same,EC50,[12],0.117 µM (active)
same,AC50,[13],2.89 µM (active)
